From patent US20050130893A1, “Use of opioids in prevention of and recovery from a stress-induced crash in blood pressure” (priority 2003, published 2005)
“And” between values parts separate entries of the source, which are not always exact repeats. Equal values may be shown once.

What was measured:
hemorrhagic shock = details: cited from earlier work
[1] = Change in body core temperature with injections; format: in vivo, rat; details: for Effect on body temperature, earlier work: males
HSP 70 and ubiquitin = assay: Molecular stress response (HSP 70 and ubiquitin) after heat stress, overall; format: in vivo, rat; details: pretreatment before heat shock; drug-unique patterns
Method: (§1) Experiments were undertaken to study the molecular stress response after heat stress with and without opiate pretreatment in rats. Since it is know that both behavior and pain response to opiates are gender-dependent, both male and female rats were used. The animals were treated by exposure to dry heat at a colonic temperature of 44° C. The animals were sacrificed and brain, leg and heart tissue was removed. The molecular stress responses chosen were HSP 70 and ubiquitin. HSP 70 is a chaperone protein which helps repair damaged proteins, and UbB and UbC forms of ubiquitin are induced by cell damage. Messenger RNA was extracted and analyzed using Northern Blot determination of transcript intensity in saline heat shock controls versus pretreatment with DADLE, a non-specific delta opioid agonist, and deltorphin D.
The subjects were male and female Charles River rats. The rats were divided by sex and by treatment groups. […] The rats were sacrificed 2 hours later and alteration of molecular responses monitored by gel electrophoresis of RNA using Northern blots. […] When the probe “finds” its complementary sequence, it binds to it and the intensity of the signal which results is determined using Molecular Analyst software of the signals on X-ray film. […]

cerebral ischemia = details: ischemia in mammals; cited from earlier work
heat stroke = assay: Heat stroke induced by heating blanket in ketamine-anesthetized male rats; format: in vivo, rat; details: for Body temperature at blood pressure crash (onset of heat stroke): blanket 51.5° C.
Method: Male rats were used in the study. The first rat weighed approximately 500 g and was anesthetized with ketamine and then wrapped in a heating blanket to raise its body temperature and induce heat stroke. The temperature and blood pressure of the anesthetized rat was monitored with a recording colonic temperature probe and a tail blood pressure cuff. When the symptoms of heat stroke were observed, 1.8 ml of 1.0 mg/ml pure deltorphin D was administered in the tail vein. The amount of deltorphin administered was based on the earlier hemorrhagic studies of Dr. Oeltgrn.
The second male rat was catherized with an arterial line two weeks previous to the next experiment to provide a means for more rapidly providing the deltorphin. The second rat weighed approximately 500 g and was anesthetized with ketamine and then wrapped in a heating blanket set at 51.5° C. to raise its body temperature and induce heat stroke. Prior to being wrapped in the heating blanket, a pre-treatment injection of 1.8 ml of 1.0 mg/ml pure deltorphin was provided through the catheter. The temperature and blood pressure of the anesthetized rat was monitored with a recording colonic temperature probe and blood pressure was monitored and recorded off of the arterial line. […] One hour later, another 1.8 ml of 1.0 mg/ml pure deltorphin was administered through the catheter. At that time, the rat was having difficulty moving.
A third male rat weighing approximately 200 g was catherized with an arterial line the day before the test. The third rat was anesthetized with ketamine and then wrapped in a heating blanket set at 51.5° C. to raise its body temperature and induce heat stroke. Prior to being wrapped in the heating blanket, a pre-treatment injection of 0.7 ml of 1.0 mg/ml pure deltorphin was provided through the catheter. The temperature and blood pressure of the anesthetized rat was monitored with a recording colonic temperature probe and blood pressure was monitored and recorded off of the arterial line. […] Fifteen minutes later, another 0.7 ml of 1.0 mg/ml pure deltorphin was administered through the catheter. The rat died approximately 75 minutes after the onset of heat stroke. […] Nonetheless, the third animal lived for 75 minutes. This survival rate is long when compared to the study reported at Chi WT, Kao TY, Lin MT. Neurosci Res. 1996 24:159-163 wherein rats in which heat stroke was induced lived only about 17 minutes after the onset of heat stroke and continuous perfusion of the animals with saline did nothing to extend their survival.

HSP70 = assay: Northern blot of HSP70 mRNA in tissues after heat shock with opioid pretreatment; format: in vivo, rat; details: heat shock 1 h 44° C
Method: as §1
(§2) The subjects were male and female Charles River rats. The rats were divided by sex and by treatment groups. There were four treatment groups: control saline treatment, heat shock-saline treatment, heat shock-DADLE treatment, and heat shock-deltorphin-D treatment. The rats underwent a three-day protocol, receiving injections each day and on the final day undergoing heat shock. The final treatment was given on day three of the experiment, 20 minutes before heat shock. Treatment consisted of intravenous tail injections at 1 mg/kg body weight for all groups. Heat shock was initiated by 1 hour exposure in an incubator at 44° C. The rats were sacrificed 2 hours later and alteration of molecular responses monitored by gel electrophoresis of RNA using Northern blots. DNA sequences for the molecular markers HSP70 and ubiquitin were used to probe the blots. The probes were radioactively labeled with p^32 to label the probe. When the probe “finds” its complementary sequence, it binds to it and the intensity of the signal which results is determined using Molecular Analyst software of the signals on X-ray film. The intensity of the black areas on the film is a measure of gene activity altered by treatment with the respective opioids.

[2] = Change in body core temperature with injections; format: in vivo, rat; details: for Changes in Body Temperature, Temperature Day 1 / Changes in Body Temperature, Temperature Day 2: individual animals, 1 mg/kg i.v. tail injection, 1 mg/kg; for Effect on body temperature: summary of Table 3
Method: as §2

heat shock = assay: Heat shock by 1 hour exposure in incubator at 44° C, sensitivity to heat; format: in vivo, rat; details: for Sensitization to heat: male rats, pretreatment; for Protection against heat, earlier work: males
Description: The present invention centers on the concept of using opioids as a protective agent against heat shock. Earlier work studied how two opioids, deltorphin D and DADLE would affect molecular stress response to heat and survival. […] The current study focused on the use of deltorphin D to protect against heat stroke by administration before, after, or before and after, heat stroke. Heat stroke is defined as a rapid rise in blood pressure followed by a crash in pressure in response to overheating.
as §2

UbB = assay: Northern blot of UbB mRNA in tissues after heat shock with opioid pretreatment; format: in vivo, rat; details: heat shock 1 h 44° C
Method: as §1, §2

UbC = assay: Northern blot of UbC mRNA in tissues after heat shock with opioid pretreatment; format: in vivo, rat; details: heat shock 1 h 44° C
Method: as §1, §2

[3] = second rat, 1.8 ml of 1.0 mg/ml before heating and one hour after onset, through catheter
[4] = Female Brain, 1 mg/kg i.v. tail injections over 3 days, sacrificed 2 hours later
[5] = Male rats, individual animals, 1 mg/kg i.v. tail injection, 1 mg/kg

Molecule | Effect on body temperature, earlier work [1] | Alteration of the molecular stress response (HSP 70 and ubiquitin) | HSP measurement (Northern blot transcript intensity) (HSP70; [4]) | HSP measurement (Northern blot transcript intensity) (HSP70; Female Heart, 1 mg/kg i.v.) | HSP measurement (Northern blot transcript intensity) (HSP70; Female Leg, 1 mg/kg i.v.) | HSP measurement (Northern blot transcript intensity) (HSP70; Male Brain, 1 mg/kg i.v.) | HSP measurement (Northern blot transcript intensity) (HSP70; Male Heart, 1 mg/kg i.v.) | HSP measurement (Northern blot transcript intensity) (HSP70; Male Leg, 1 mg/kg i.v.) | Changes in Body Temperature, Temperature Day 1 ([2]; Female rats) | Changes in Body Temperature, Temperature Day 2 ([2]; Female rats) | Effect on body temperature [2] | Sensitization to heat (heat shock) | Protection against heat, earlier work (heat shock) | UBB measurement (Northern blot transcript intensity) (UbB; [4]) | UBB measurement (Northern blot transcript intensity) (UbB; Female Heart, 1 mg/kg i.v.) | UBB measurement (Northern blot transcript intensity) (UbB; Female Leg, 1 mg/kg i.v.) | UBB measurement (Northern blot transcript intensity) (UbB; Male Brain, 1 mg/kg i.v.) | UBB measurement (Northern blot transcript intensity) (UbB; Male Heart, 1 mg/kg i.v.) | UBB measurement (Northern blot transcript intensity) (UbB; Male Leg, 1 mg/kg i.v.) | UBC measurement (Northern blot transcript intensity) (UbC; [4]) | other results
[D-Ala2-MePhe4-Glyol]enkephalin [DAGO] | – | – | – | – | – | – | – | – | – | – | – | – | – | – | – | – | – | – | – | – | Restoration of mean arterial pressure after hemorrhage (hemorrhagic shock; bleeding non-lethal, Feuerstein et al. 1985): restore mean arterial pressure after hemorrhage
Tyr-D-Ala-Phe-Ala-Asp-Val-Ala-Ser-Thr-Ile-Gly-Asp-Phe-Phe-His-Ser-Ile-NH2 (AFADVASTIGDFFHSI; N-terminal Tyr-D-, C-amide; printed: Ala-Phe-Ala-Asp-Val-Ala-Ser-Thr-Ile-Gly-Asp-Phe-Phe-His-Ser-Ile-) [deltorphin D, linear 17 amino acid opioid peptide synthesized on a commercial peptide synthesizer] | lowered body temperature | significant (p<0.05) alteration of the molecular stress response | 0.02634 | 1.27 | 0.9001 | 1.043 | 0.3697 | 0.6697 | −0.7 (2×) and 0.2 and −1.6 and −1.5 | −1.4 and −1.7 and −1.6 and −1.9 and −2.8 | lowers body temperature significantly | not | protective against heat | 2.844 | 2.845 | 2.803 | 2.259 | 0.5613 | 2.319 | 0.7664 | Effect on neurological deficit and cerebral infarct volume (cerebral ischemia): decreasing neurological deficit and cerebral infarct volume; Survival after heat stroke (heat stroke; first rat, approx. 500 g, 1.8 ml of 1.0 mg/ml in the tail vein when symptoms of heat stroke were observed): survived only a few minutes; Body temperature at blood pressure crash (onset of heat stroke) (heat stroke; second rat, approx. 500 g, pre-treatment 1.8 ml of 1.0 mg/ml through arterial catheter): 41 °C; Ability to drink seven hours after the onset of heat stroke (heat stroke; [3]): able to drink 5 ml of water out of a pipette; Ability to move two hours after the onset of heat stroke (heat stroke; [3]): able to move some on its own; Survival after heat stroke (heat stroke; [3]): alive and healthy more than four weeks after the test; Survival time after the onset of heat stroke (heat stroke; third rat, approx. 200 g, 0.7 ml of 1.0 mg/ml before heating and fifteen minutes after onset, catheter installed the day before): approximately 75 minutes; Body temperature at blood pressure crash (onset of heat stroke) (heat stroke; third rat, approx. 200 g, pre-treatment 0.7 ml of 1.0 mg/ml through arterial catheter): 41 °C; Survival relative to expected time in the absence of deltorphin administration (heat stroke; third rat, compared with about 17 minutes in Chi et al. 1996): more than four times the expected time; Changes in Body Temperature, Temperature Day 1 ([2]; Male rats): −2.6 and −2.2 and −1.2 and −3.1; Changes in Body Temperature, Temperature Day 2 ([2]; Male rats): −2.9 and −1.4 and −0.7 and −2.2; UBC measurement (Northern blot transcript intensity) (UbC; Female Heart, 1 mg/kg i.v.): 0.8595; UBC measurement (Northern blot transcript intensity) (UbC; Female Leg, 1 mg/kg i.v.): 0.2439; UBC measurement (Northern blot transcript intensity) (UbC; Male Brain, 1 mg/kg i.v.): 1.694; UBC measurement (Northern blot transcript intensity) (UbC; Male Heart, 1 mg/kg i.v.): 0.04345; UBC measurement (Northern blot transcript intensity) (UbC; Male Leg, 1 mg/kg i.v.): 0.1339
CC(C)C[C@@H](NC(=O)[C@H](Cc1ccccc1)NC(=O)CNC(=O)[C@@H](C)NC(=O)[C@@H](N)Cc1ccc(O)cc1)C(=O)O [DADLE, [D-Ala2-D-Leu5]enkephalin acetate (Tyr-D-Ala-Gly-Phe-D-Leu), reference compound] | did not show these effects | significant (p<0.05) alteration of the molecular stress response | 1.295 | 0.8958 | 0.884 | 1.391 | 0.5364 | 0.3294 | −2.4 and 0.45 and −1.85 and −0.85 | −3.45 and −1.65 and −1.45 and −0.35 | raises body temperature | sensitized male rats to heat | did not show these effects | 1.688 | 3.57 | 2.76 | 4.596 | 0.7754 | 0.6005 | 0.7993 | Changes in Body Temperature, Temperature Day 1 [1, 5]: 2.36 and 1.82; Changes in Body Temperature, Temperature Day 2 [1, 5]: 1.55 and 0.2; Effect on fallen mean arterial pressure (hemorrhagic shock; Summers et al. 2003): quickly reverses fallen mean arterial pressure; Survival of hemorrhagic shock (hemorrhagic shock; Summers et al. 2003): increase survival of hemorrhagic shock; UBC measurement (Northern blot transcript intensity) (UbC; Female Heart, 1 mg/kg i.v.): 0.5605; UBC measurement (Northern blot transcript intensity) (UbC; Female Leg, 1 mg/kg i.v.): 0.8995; UBC measurement (Northern blot transcript intensity) (UbC; Male Brain, 1 mg/kg i.v.): 2.356; UBC measurement (Northern blot transcript intensity) (UbC; Male Heart, 1 mg/kg i.v.): 0.5837; UBC measurement (Northern blot transcript intensity) (UbC; Male Leg, 1 mg/kg i.v.): 0.18
